How the values were obtained:
Experiment in all cases: Cell proliferation CellTiterGlo Ex.2
Assay type in all cases: cell-based
NALM-6 = conditions: Homo sapiens; NALM-6 (Blood), 72 h
Description: (§1) A dose response relationship on cell proliferation was assessed for Compound 13 on 140 tumor cell lines. Briefly, compound treatment of cells started one day after seeding with a final DMSO concentration of 0.100, and was performed by nanodrop-dispensing using a Tecan Dispenser. 0.10% DMSO (solvent) and Staurosporine (10 μM) served as high control (10000 viability) and low control (000 viability), respectively. Compound 13 was tested at 10, 3, 1, 0.3, 0.1, 0.03, 0.01, and 0.003 μM.
(§2) Cells were cultured in the appropriate media. For the assays, cells were seeded in white cell culture-treated flat and clear bottom multiwell plates and incubated at 37° C. overnight before compound was added. After incubation for 72 h at 37° C. at 5% or 10% CO2 dependent on the medium, cell plates were equilibrated to room temperature for one hour, CellTiterGlo reagent (Promega) was added and luminescence was measured approximately an hour later using a luminometer.
(§3) Raw data were converted into percent cell viability relative to the high and low control, which were set to 10000 and 000, respectively.

HuH7 = conditions: Homo sapiens, Huh-7; HuH7 (Liver), 72 h
Description: as §1, §2, §3

HCC202 = HCC202 (Breast), 72 h
Description: as §1, §2, §3

HCC 1569 = conditions: Homo sapiens, HCC1569; HCC 1569 (Breast), 72 h
Description: as §1, §2, §3

NCI-H1581 = conditions: Homo sapiens; NCI-H1581 (Lung), 72 h
Description: as §1, §2, §3

NCI-H2286 = conditions: Homo sapiens; NCI-H2286 (Lung), 72 h
Description: as §1, §2, §3

DV90 = conditions: Homo sapiens, DV-90; DV90 (Lung), 72 h
Description: as §1, §2, §3

SiHa = conditions: Homo sapiens; SiHa (Cervix), 72 h
Description: as §1, §2, §3

SNU-16 = conditions: Homo sapiens; SNU-16 (Stomach), 72 h
Description: as §1, §2, §3

BEN = BEN (Lung), 72 h
Description: as §1, §2, §3

HEC-1-A = conditions: Homo sapiens; HEC-1-A (Endometrium), 72 h
Description: as §1, §2, §3

NCI-H1838 = conditions: Homo sapiens; NCI-H1838 (Lung), 72 h
Description: as §1, §2, §3

A427 = conditions: Homo sapiens, A-427; A427 (Lung), 72 h
Description: as §1, §2, §3

LOU-NH91 = LOU-NH91 (Lung), 72 h
Description: as §1, §2, §3

DU-145 = conditions: Homo sapiens; DU-145 (Prostate), 72 h
Description: as §1, §2, §3

Mia PaCA 2 = conditions: Homo sapiens; Mia PaCA 2 (Pancreas), 72 h
Description: as §1, §2, §3

RERF-LC-Ad2 = RERF-LC-Ad2 (Lung), 72 h
Description: as §1, §2, §3

MEC-1 = conditions: Homo sapiens, MEC1; MEC-1 (Blood), 72 h
Description: as §1, §2, §3

Calu-6 = conditions: Homo sapiens; Calu-6 (Lung), 72 h
Description: as §1, §2, §3

SK-OV3 = conditions: Homo sapiens, SK-OV-3; SK-OV3 (Ovary), 72 h
Description: as §1, §2, §3

LOVO = conditions: Homo sapiens; LOVO (Colon), 72 h
Description: as §1, §2, §3

SK-MEL-3 = conditions: Homo sapiens, SK-MEL3; SK-MEL-3 (Skin), 72 h
Description: as §1, §2, §3

KG-1 = conditions: Homo sapiens; KG-1 (Blood), 72 h
Description: as §1, §2, §3

K562 = conditions: Homo sapiens; K562 (Blood), 72 h
Description: as §1, §2, §3

MDA-MB-468 = conditions: Homo sapiens; MDA-MB-468 (Breast), 72 h
Description: as §1, §2, §3

HeLa = conditions: Homo sapiens; HeLa (Cervix), 72 h
Description: as §1, §2, §3

SNU840 = conditions: SNU-840; SNU840 (Ovary), 72 h
Description: as §1, §2, §3

SNU-216 = SNU-216 (Stomach), 72 h
Description: as §1, §2, §3

U2OS = conditions: Homo sapiens; U2OS (Bone), 72 h
Description: as §1, §2, §3

RERF-LC-MS = RERF-LC-MS (Lung), 72 h
Description: as §1, §2, §3

MOLM-13 = conditions: Homo sapiens; MOLM-13 (Blood), 72 h
Description: as §1, §2, §3

NCI-H1048 = conditions: Homo sapiens; NCI-H1048 (Lung), 72 h
Description: as §1, §2, §3

OVK18 = OVK18 (Ovary), 72 h
Description: as §1, §2, §3

Q: With C#C[C@]1(CO)O[C@@H](n2cnc3c(=O)[nH]c(N)nc32)C[C@@H]1O [compound 13] as the molecule, how does the IC50 (NALM-6) read?
A: Its IC50 is 250 nM.

Q: What about the IC50 (HuH7) of the same molecule?
A: The IC50 was 1240 nM.

Q: And the IC50 (HCC202)?
A: Its IC50 is over 10000 nM.

Q: What about the IC50 (HCC 1569) of the same molecule?
A: Its IC50 is over 10000 nM.

Q: And the IC50 (NCI-H1581)?
A: The IC50 was 2970 nM.

Q: What about the IC50 (NCI-H2286) of the same molecule?
A: Its IC50 is 5690 nM.

Q: What about the IC50 (DV90) of the same molecule?
A: Its IC50 is 1590 nM.

Q: What about the IC50 (SiHa) of the same molecule?
A: Its IC50 is 2450 nM.

Q: What about the IC50 (SNU-16) of the same molecule?
A: The IC50 was 1950 nM.

Q: And the IC50 (BEN)?
A: Its IC50 is over 10000 nM.

Q: And the IC50 (HEC-1-A)?
A: Its IC50 is over 10000 nM.

Q: What about the IC50 (NCI-H1838) of the same molecule?
A: The IC50 was 7530 nM.

Q: What about the IC50 (A427) of the same molecule?
A: Its IC50 is 550 nM.

Q: And the IC50 (LOU-NH91)?
A: Its IC50 is over 10000 nM.

Q: And the IC50 (DU-145)?
A: The IC50 was 5730 nM.

Q: What about the IC50 (Mia PaCA 2) of the same molecule?
A: Its IC50 is over 10000 nM.

Q: And the IC50 (RERF-LC-Ad2)?
A: Its IC50 is 2580 nM.

Q: What about the IC50 (MEC-1) of the same molecule?
A: Its IC50 is 9850 nM.

Q: And the IC50 (Calu-6)?
A: Its IC50 is over 10000 nM.

Q: And the IC50 (SK-OV3)?
A: Its IC50 is 4000 nM.

Q: And the IC50 (LOVO)?
A: Its IC50 is 8210 nM.

Q: And the IC50 (SK-MEL-3)?
A: Its IC50 is over 10000 nM.

Q: What about the IC50 (KG-1) of the same molecule?
A: The IC50 was over 10000 nM.

Q: And the IC50 (K562)?
A: The IC50 was over 10000 nM.

Q: And the IC50 (MDA-MB-468)?
A: Its IC50 is over 10000 nM.

Q: And the IC50 (HeLa)?
A: The IC50 was 1300 nM.

Q: What about the IC50 (SNU840) of the same molecule?
A: Its IC50 is 4230 nM.

Q: What about the IC50 (SNU-216) of the same molecule?
A: Its IC50 is 1740 nM.

Q: And the IC50 (U2OS)?
A: The IC50 was 2180 nM.

Q: What about the IC50 (RERF-LC-MS) of the same molecule?
A: The IC50 was over 10000 nM.

Q: And the IC50 (MOLM-13)?
A: The IC50 was 460 nM.

Q: What about the IC50 (NCI-H1048) of the same molecule?
A: The IC50 was 2490 nM.

Q: And the IC50 (OVK18)?
A: Its IC50 is 2210 nM.

— patent publication US20230293526A1, “METHOD FOR TREATING CANCER WITH A REVERSE TRANSCRIPTASE INHIBITOR” (PrimeFour Therapeutics, Inc., priority 2020, published 2023)
